This passage reports IC50 results from patent US20230090293A1, “ANTIBIOTICS” (ASTON UNIVERSITY, priority 2020, published 2023).

What is called IC50 is the point on the concentration scale where inhibition reaches its midpoint.

The test system of assay [1] is HCT116 (colorectal cancer cell line). Briefly: In vitro chemosensitivity (MTT) assay, HCT116. Conditions: 24 h exposure, 72 h recovery, mean ± SD. In kind it is cell-based, human. Here is the method: (§1) In vitro chemosensitivity tests were performed against HCT116 (colorectal cancer cell line), A2780 and A2780cisR (cisplatin sensitive and cisplatin resistant ovarian cancer cell lines, respectively). Cancer cell lines were routinely maintained as monolayer cultures in RPMI medium supplemented with 10% foetal calf serum, penicillin (100 I.U./ml) and streptomycin (100 μg/ml), sodium pyruvate (1 mM) and L-glutamine (2 mM). For chemosensitivity studies, cells were incubated in 96-well plates at a concentration of 7.5×10^3 cells per well and the plates were incubated for 24 hours at 37° C. and a 5% CO2 humidified atmosphere prior to drug exposure.
(§2) Complexes were dissolved in dimethylsulfoxide (DMSO) to provide stock solutions which were further diluted with media to provide a range of final concentrations. Drug-media solutions were added to cells (the final concentration of DMSO was less than 0.5% (v/v) in all cases) and incubated for 24 hours at 37° C. and 5% CO2 humidified atmosphere. […] A Thermo Scientific Multiskan EX microplate photometer was used to measure the absorbance in each well at 570 nm. Cell survival was determined as the absorbance of treated cells divided by the absorbance of controls and expressed as a percentage. The IC50 values were determined from plots of % survival against drug concentration. […]

Assay [2] relates to A2780cisR (cisplatin resistant ovarian cancer cell line). Briefly: In vitro chemosensitivity (MTT) assay, A2780cisR. The assay is classed as cell-based, human. The settings on record: 24 h exposure, 72 h recovery, mean ± SD. The method, then:
as §1, §2

Turning to `N.N.[Cl][Pt][Cl]` [cisplatin], the figures for the IC50 in assay [1] and in assay [2] were 59.8 ± 7.5 µM and 11.9 ± 2.2 µM, respectively.
